In US20110312961A1, “2,5-Disubstituted Morpholine Orexin REceptor Antagonists” (priority 2008, published 2011):
Read-outs that look alike come from different tables or passages of the source.

Experiments:
[1] = molecular target: α7 nicotinic ACh receptors (Homo sapiens, UniProt P36544); assay: Electrophysiology at α7, dose-response and co-application with ACh (Dynaflow chip); assay type: cell-based
Procedure: Hump currents are defined as the tail current observed during co-application with endogenous ACh following agonist removal.
The channels were prepared as follows: Control solution (channel #2), application ligand itself (channel #3), application of acetylcholine itself (channel #1), and application of mixture of acetylcholine and ligand (channel #4).
Curve 1, FIG. 7B: The bar above the curve indicates time of ACh application. The curve represents current induced by a one second application of 70 μM ACh. The curve illustrates the result from moving the cell from channel #2 to channel #1 for a 1 second application of ACh and back to channel 2 (washout).
Curve 4, FIG. 7B: Curve 4 represents a repetition of Curve 1 at the end of measurements after application of the ligand and ACh/ligand mixture (recovery).
Curve 2, FIG. 7B: The down/up arrows indicates time of application.

[2] = molecular target: T1, human recombinant α4β2 nicotinic receptors (Homo sapiens, UniProt P17787+P43681); assay: [3H]-nicotine radioligand binding, SH-EP1/human α4β2 membranes; conditions: read-out: inhibition of [3H]-nicotine binding to human recombinant α4β2 nicotinic receptors
T1 construct: expressed in transfected cells; host or cells: SH-EP1 clonal cells
Procedure: Preparation of membranes from SH-EP1/human α4β2 clonal cells: Cell pellets from 40 150 mm culture dishes were pooled, and homogenized by Polytron (Kinematica GmbH, Switzerland) in 20 milliliters of ice-cold preparative buffer. The homogenate was centrifuged at 48,000 g for 20 minutes at 4° C. The resulting pellet was re-suspended in 20 mL of ice-cold preparative buffer and stored at −20° C.
On the day of the assay, the frozen membranes were thawed and spun at 48,000×g for 20 min. The supernatant was decanted and discarded. The pellet was resuspended in Dulbecco's phosphate buffered saline (PBS, Life Technologies) pH 7.4 and homogenized with the Polytron for 6 seconds. Protein concentrations were determined using a Pierce BCA Protein Assay Kit, with bovine serum albumin as the standard (Pierce Chemical Company, Rockford, Ill.).
Membrane preparations (approximately 50 μg for human and 200-300 μg protein for rat α4β2) were incubated in PBS (50 μL and 100 μL respectively) in the presence of competitor compound (0.01 nM to 100 μM) and 5 nM [^3H]nicotine for 2-3 hours on ice. […] Filters were then counted to determine radioactivity bound to the membranes by liquid scintillation counting (2200CA Tri-Carb LSC, Packard Instruments, 50% efficiency or Wallac Trilux 1450 MicroBeta, 40% efficiency, Perkin Elmer).
Data were expressed as disintegrations per minute (DPMs). […]

[3] = system: ovalbumin-sensitized mice; assay: Airway hyperresponsiveness (Penh) and BALF cell counts; assay type: in vivo, mouse; conditions: for methacholine-induced increase in Penh values: FIG. 21
Procedure: Using the method of Hamelmann et al, (2S,3R)—N-2-((3-pyridinyl)methyl)-1-azabicyclo[2.2.2]oct-3-yl)-3,5-difluorobenzamide was evaluated for possible inhibition of airway hyper-responsiveness in mice. Briefly, ovalbumin (OVA)-sensitized animals, 12 animals per group, were challenged by nasal inhalation with aerosolized 5% OVA for 25 min on days 21, 23, and 25. The mice were treated with vehicle or (2S,3R)—N-2-((3-pyridinyl)methyl)-1-azabicyclo[2.2.2]oct-3-yl)-3,5-difluorobenzamide subcutaneously (s.c.) twice daily from day 21 to day 26 or once daily intratracheally (i.t.), preceding ovalbumin aerosol challenge by 30 min on days 21, 23 and 25 as well as methacholine challenge or bronchoalveolar lavage fluids (BALF) harvest on day 26. Dexamethasone, the reference standard, was administered at 3 mg/kg orally (p.o.) once daily 60 min before OVA challenge on day 21, 23 and 25 and 60 min before methacholine provocation or BALF harvest on day 26. Noninvasive measurements of airway responsiveness were performed by using whole body plethysmography, in which increases in enhanced pause (Penh) serve as an index of airway obstruction. Responses to inhaled methacholine were measured and calculated as percentage of respective baseline values. Unpaired Students t-test was used for comparison between the vehicle control and the sham group; one-way ANOVA and Dunnett's post-hoc analyses were applied for comparison between the vehicle control and treated groups. Statistical significance is considered at P<0.05.

[4] = molecular target: T2, human native ganglion-type nicotinic receptors (likely α3β4) (Homo sapiens, UniProt P30926+P32297); assay: [3H]epibatidine binding, SH-SY5Y membranes; conditions: read-out: Human ganglionic (SH-SY5Y), Ki
T2 construct: human native ganglion-type nicotinic receptors (likely α3β4); endogenous in cells; host or cells: SH-SY5Y
T2 sequence (P32297 32-505): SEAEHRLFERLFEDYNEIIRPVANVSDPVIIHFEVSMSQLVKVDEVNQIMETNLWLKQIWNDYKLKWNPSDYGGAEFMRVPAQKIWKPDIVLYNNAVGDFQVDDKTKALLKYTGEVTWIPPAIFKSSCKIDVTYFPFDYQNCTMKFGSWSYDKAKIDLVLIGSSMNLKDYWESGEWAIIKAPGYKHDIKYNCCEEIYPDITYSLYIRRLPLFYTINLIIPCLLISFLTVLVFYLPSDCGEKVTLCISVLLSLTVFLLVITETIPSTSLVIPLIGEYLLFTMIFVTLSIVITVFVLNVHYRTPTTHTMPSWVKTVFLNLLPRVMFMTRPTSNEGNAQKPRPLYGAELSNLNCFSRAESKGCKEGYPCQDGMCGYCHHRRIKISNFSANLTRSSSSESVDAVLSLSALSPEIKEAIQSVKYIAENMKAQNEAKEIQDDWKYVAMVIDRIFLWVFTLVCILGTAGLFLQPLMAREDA
T2 sequence (P30926 22-498): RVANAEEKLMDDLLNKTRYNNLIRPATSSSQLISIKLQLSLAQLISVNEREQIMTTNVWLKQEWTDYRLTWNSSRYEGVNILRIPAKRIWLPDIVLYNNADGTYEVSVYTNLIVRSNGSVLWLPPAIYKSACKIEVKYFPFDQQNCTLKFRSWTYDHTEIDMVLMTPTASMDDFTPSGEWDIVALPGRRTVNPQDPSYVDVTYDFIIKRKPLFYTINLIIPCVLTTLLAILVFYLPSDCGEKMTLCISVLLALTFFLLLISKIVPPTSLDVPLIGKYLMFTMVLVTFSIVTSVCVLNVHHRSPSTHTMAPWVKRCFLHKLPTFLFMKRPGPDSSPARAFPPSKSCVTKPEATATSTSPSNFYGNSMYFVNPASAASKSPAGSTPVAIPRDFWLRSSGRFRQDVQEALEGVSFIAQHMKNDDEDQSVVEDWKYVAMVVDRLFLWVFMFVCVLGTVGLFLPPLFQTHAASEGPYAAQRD

Sequence of α7 nicotinic ACh receptors (P36544 23-502): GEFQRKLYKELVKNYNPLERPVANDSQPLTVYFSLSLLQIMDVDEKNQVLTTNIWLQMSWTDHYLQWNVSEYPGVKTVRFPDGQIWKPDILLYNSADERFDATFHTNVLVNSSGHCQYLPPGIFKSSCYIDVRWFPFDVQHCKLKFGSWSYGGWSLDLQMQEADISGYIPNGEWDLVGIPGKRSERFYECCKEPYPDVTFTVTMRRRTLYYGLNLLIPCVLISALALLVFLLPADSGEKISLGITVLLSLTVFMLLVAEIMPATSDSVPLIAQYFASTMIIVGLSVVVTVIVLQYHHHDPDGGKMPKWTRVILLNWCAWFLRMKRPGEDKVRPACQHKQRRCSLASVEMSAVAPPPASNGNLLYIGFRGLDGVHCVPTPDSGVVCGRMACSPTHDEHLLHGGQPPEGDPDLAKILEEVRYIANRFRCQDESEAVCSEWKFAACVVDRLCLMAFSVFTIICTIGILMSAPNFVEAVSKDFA
T1 sequence (P43681 29-627 limits assumed): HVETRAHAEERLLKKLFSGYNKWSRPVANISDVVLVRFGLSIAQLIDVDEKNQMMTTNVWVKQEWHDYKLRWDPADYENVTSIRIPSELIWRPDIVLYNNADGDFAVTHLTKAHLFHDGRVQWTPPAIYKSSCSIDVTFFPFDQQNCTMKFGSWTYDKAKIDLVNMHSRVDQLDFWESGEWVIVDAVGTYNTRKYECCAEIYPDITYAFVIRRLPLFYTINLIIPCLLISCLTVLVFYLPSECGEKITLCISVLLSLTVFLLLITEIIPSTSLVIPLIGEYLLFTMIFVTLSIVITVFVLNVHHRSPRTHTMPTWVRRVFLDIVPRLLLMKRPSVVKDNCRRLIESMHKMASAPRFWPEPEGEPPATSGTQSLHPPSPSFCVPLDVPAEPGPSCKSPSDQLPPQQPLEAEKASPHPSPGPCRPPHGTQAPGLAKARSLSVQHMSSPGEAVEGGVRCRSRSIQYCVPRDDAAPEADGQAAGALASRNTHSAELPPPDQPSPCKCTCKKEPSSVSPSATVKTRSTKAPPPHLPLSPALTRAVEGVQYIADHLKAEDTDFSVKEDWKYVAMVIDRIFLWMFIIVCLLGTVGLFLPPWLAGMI
T1 sequence (P17787 26-502): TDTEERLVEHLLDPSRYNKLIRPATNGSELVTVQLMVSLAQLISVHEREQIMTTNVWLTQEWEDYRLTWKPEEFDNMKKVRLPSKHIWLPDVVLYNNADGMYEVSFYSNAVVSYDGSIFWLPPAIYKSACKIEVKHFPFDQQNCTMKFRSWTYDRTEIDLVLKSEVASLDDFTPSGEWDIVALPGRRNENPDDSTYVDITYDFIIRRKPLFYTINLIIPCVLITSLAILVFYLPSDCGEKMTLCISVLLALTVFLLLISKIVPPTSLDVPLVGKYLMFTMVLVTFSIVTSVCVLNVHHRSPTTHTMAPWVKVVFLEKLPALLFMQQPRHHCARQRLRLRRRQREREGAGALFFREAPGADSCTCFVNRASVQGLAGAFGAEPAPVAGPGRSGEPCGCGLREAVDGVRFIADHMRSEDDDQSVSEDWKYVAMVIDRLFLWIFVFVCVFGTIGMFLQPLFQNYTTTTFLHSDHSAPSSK

O=C(N[C@@H]1C2CCN(CC2)[C@H]1Cc1cccnc1)c1cc(F)cc(F)c1 [Compound A]
type of activity at the α7 NNR [1]: partial agonists
current on application of the ligand following application of ACh ([1]; 200 nM ligand, Curve 3 FIG. 7B): profound “hump” current
current on application of the ligand alone ([1]; 200 nM, 5 second application, Curve 2 FIG. 7B): do not produce robust macro currents
effect on ACh-induced current ([1]; co-application of compound with ACh, FIG. 6): enhances ACh-induced current
EC50 ([1]; co-application with ACh, 100-500 nM range, n=4, FIG. 7C, read-out: EC50 of hump current): 120 nM
concentration at Emax of hump current ([1]; co-application with ACh, FIG. 7C): approximately 500 nM
Emax ([1]; dose-response, FIG. 5): 54.4%
EC50 ([1]; dose-response, FIG. 5, read-out: EC50 at α7 nicotinic receptors): 1600 nM
Ki [2]: 1470 nM
methacholine-induced increase in Penh values ([3]; 10 mg/kg IT qd): significant inhibition
monocytes in BALF ([3]; 10 mg/kg SC): reduced
methacholine-induced increase in Penh values ([3]; 0.1, 1, and 10 mg/kg bid s.c.): significant inhibition
airway hyper-responsiveness ([3]; 0.1, 1 and 10 mg/kg bid s.c. and 10 mg/kg i.t., multiple administrations): significant protection against airway hyper-responsiveness
total WBC and eosinophils in BALF ([3]; 0.1 and 1 mg/kg SC): significantly reduced
lymphocytes in BALF ([3]; 0.1 and 1 mg/kg SC as well as 10 mg/kg IT): reduced
eosinophils and white blood cells in BALF ([3]; multiple administrations, lacks a consistent dose-response relationship): significant reduction
Ki [4]: 48 µM
